Assay results published in patent US5175151A, “Antiviral compounds and antihypertensive compounds” (Schering Corporation, priority 1992, dated 1992).
Values after ≈ are worked out from the molar mass of the structure shown. Where two headings read alike, the source gives them in different places.

Key:
HSV-2 (strain MS) = assay: HSV-β-Gal assay: transient expression of beta galactosidase in transfected HeLa cells superinfected with HSV-2 (in-vitro anti-HSV activity); type: cell-based
Experimental: HeLa and Vero cell cultures were maintained in Eagles Minimal Essential Medium which was supplemented with glutamine, penecillin, streptomycin and 10% fetal calf serum (10% EMEM). Stock cultures of HSV-2 (strain MS available from ATCC VR-540) were grown in and harvested from Vero cells. Viral stocks were titered in Vero cells according to established procedures.
Plasmid pON 245^ori- contains the promoter of the HSV-1 thymidine kinase (tk) gene located immediately 5' of the E. coli lac Z gene. In this arrangement, the tk promoter controls transcription from the bacterial gene in transient expression assays. Additionally, an SV40 polyadenylation signal is present at the 3' end of the lac Z gene to allow for the efficient translation of the mRNA in eucaryotic cells. The expression of beta galactosidase in a transient assay using pON 245^ori- is dependent upon superinfection of the transfected cells with HSV. […] For example, see U.S. application Ser. No. 07/435,491 filed Sep. 5, 1989, the disclosure of which is incorporated herein by reference thereto.
HeLa cells were seeded into 96 well microtiter plates and allowed to grow to 80% confluency (approximately 35,000 cells/well). One half microgram of plasmid pON 245^ori- DNA was introduced into the cells of each well by the […] precipitation technique (Graham and Van der Eb, 1973). Four to six hours later, the cells were rinsed with Hank's Balanced Salt Soluton (HBSS), overlaid with 10% EMEM and incubated at 37° C. At 24 hrs post-trasnfection, cells were rinsed, overlaid with 10% EMEM again and re-incubated at 37° C. At 48 hrs post-transfection, cells were rinsed and overlaid with either EMEM containing 2% fetal calf serum (2% EMEM, 2% EMEM containing HSV-2 (strain MS, Multiplicity of Infection [moi]=5 pfu/cell) or 2% EMEM containing HSV-2 and the appropriate concentration of the compound to be tested. Twenty-four hrs later, the cells were harvested and assayed to beta galactosidase activity as described below.
All determinations of beta galactosidase activity were performed in 96 well microtiter plates. The intracellular level of beta galactosidase activity in each well was determined from cell lysates of the monolayer cultures. Aliquots were assayed by incubation in the presence of beta galactosidase substrate, 4-methylumbelliferyl-β-D-galactoside (MUG, 125 ug/ml, Sigma), for 2 hrs. The generation of fluorescent product was quantified on a Microfluor microfluorimeter (Dynatech) after addition of 0.1M glycine, pH 10.3 (Spaete and Mocarski, 1985). The inhibitory activity of a compound was plotted versus the concentration and an IC50 value (the concentration of compound required to reduce beta glactosidase expression by 50%) was obtained for each compound tested.

[1] = Compound toxicity assay: ^3 H-LEU HeLa cell translation (cytotoxicity); type: cell-based; details: human; HeLa cells, translational activity, overnight incubation at 37° C.; read-out: Cytotoxicity, ^3 H-LEU Assay IC50
Experimental: HeLa cells were treated with inhibitory compound for 24 hrs, after which levels of translational activity were assayed.
For assay of translational activity, HeLa cultures were grown to 80% confluency in 96 well microtiter plates, treated with appropriate concentrations of compound in 2% EMEM during an overnight incubation at 37° C., then rinsed with HBSS and overlaid with […] of 2% EMEM containing 8 uCi of tritiated leucine (^3 H-LEU, 141 Cu/mMol, Amersham Corp., Arlington Heights, Ill.). After a 1 hr incubation at 36.5° C., the cells were rinsed twice with phosphate buffered saline (PBS) and lysed in 400 ul/well of 1×PBS, 0.5% sodium dodecyl sulphate (SDS). After a 10 min incubation at 36.5° C., the contents of the well were transferred to a well in a Millititer HA microfiltration plate (Millipore Corp., Bedford, Mass.). The TCA insoluble proteins were precipitated onto the filter disc by a 10 min fixation with 5% TCA, followed by filtration over vacuum and three 10 minute rinses with 95% ethanol. The filters were dried at room temperature, cut from the milltitier plate and transferred to scintillation vials. TCA precipitable counts were assayed in 5 ml of Scintisol (Isolab, Akron, Ohio). The inhibitory activity of a compound was plotted versus the concentration and an IC50 value (that concentration of the compound required to decrease cellular translational activity by 50%) was derived for each compound.

[2] = molecular target: T1, cGMP phosphodiesterase (cGMP-PDE) (Bos taurus, UniProt Q28156); assay: Phosphodiesterase inhibition in vitro (cGMP-PDE); type: biochemical; details: bovine lung enzyme, 1 μM ^3 H-cGMP, pH 7.5, 25 minutes, room temperature
T1 construct: is a homogeneous enzyme obtained from bovine lung and purified by ion-exchange chromatography, gel filtration, and sucrose gradient centrifugation; from tissue; host or cells: bovine lung

[3] = test system: spontaneously hypertensive rats (SHR); assay: SHR analysis: fall in mean blood pressure in conscious spontaneously hypertensive rats; type: in vivo, rat (SHR males); details: for SHR MBP: 25 mpk (p.o.), Table IV
Experimental: The ability of the antihypertensive compounds of the present invention to lower blood pressure can be assessed in vivo in conscious spontaneously hypertensive rats (SHR). SHR males are purchased from Taconic Farms, Germantown, N.Y. and are approximately 16-18 weeks old when anesthetized with ether. The caudal (ventral tail) artery is cannulated with polyethylene tubing (PE50) and blood pressure and heart rate are recorded as described by Baum, T. et al, J. Cardiovasc. Pharmacol. Vol. 5, pp. 665-667, (1983). Rats are placed into plastic cylindrical cages where they rapidly recover consciousness. Blood pressure and heart rate are allowed to stabilize for approximately 90 minutes prior to compound administration. Compounds are administered orally as solutions or suspensions in 0.4% aqueous methylcellulose vehicle via a feeding needle. The compound or 0.4% aqueous methylcellulose vehicle are given in a volume of 4 ml/kg to SHRs that had been fasted overnight. Activity is expressed as the fall in mean blood pressure (MBP) in millimeters of mercury (mm Hg). Compound-induced changes are compared with the changes in an appropriate placebo group.

herpes virus [4] = details: added to lidocaine or lidocaine hydrochloride; cited from earlier work
HSV-1 = details: cited from earlier work
HSV = details: cited from earlier work
HSV-2 = details: cited from earlier work
herpes virus [5] = details: cited from earlier work
[6] = Human alphaherpesvirus 2, HeLa cells, HSV-2 strain MS, moi 5 pfu/cell, 24 hrs, read-out: Anti-HSV Activity, HSV-β-Gal Assay IC50
[7] = Human alphaherpesvirus 2, *Repeat, HeLa cells, HSV-2 strain MS, moi 5 pfu/cell, 24 hrs, read-out: Anti-HSV Activity, HSV-β-Gal Assay IC50 (repeat)

| SMILES | IC50 (HSV-2 (strain MS); [6]) | IC50 [2] | CC50 [1] | also measured |
| --- | --- | --- | --- | --- |
| CN(C)CCOc1cc(=O)c2ccccc2n1C [Compound 1, 1-Methyl-2-(2-Dimethylaminoethoxy)-4(1H)-Quinolinone] | > 25 µg/mL |  |  |  |
| COc1cc(=O)c2cc(C)ccc2n1Cc1ccccc1 [Compound 3, 1-Benzyl-2-Methoxy-6-Methyl-4(1H)-Quinolinone] | 13 µg/mL (≈ 46.5 µM) | 6 µM | 85 µg/mL (≈ 304 µM) |  |
| COc1cc(=O)c2ccccc2n1Cc1ccccc1 [Compound 4, 1-Benzyl-2-Methoxy-4(1H)-Quinolinone] | 20 µg/mL (≈ 75.4 µM) | 2.6 µM | 45 µg/mL (≈ 170 µM) |  |
| CCCCCCCn1c(OC)cc(=O)c2ccccc21 [Compound 5, 1-Heptyl-2-Methoxy-4(1H)-Quinolinone] | 9 µg/mL (≈ 32.9 µM) | 5.9 µM | 45 µg/mL (≈ 165 µM) |  |
| CCCCCCn1c(OC)cc(=O)c2cccc(C)c21 [Compound 6, 1-Hexyl-2-Methoxy-8-Methyl-4(1H)-Quinolinone] |  | > 100 µM | 27 µg/mL (≈ 98.8 µM) | SHR MBP [3]: -1 mm of Hg; IC50 (HSV-2 (strain MS); Human alphaherpesvirus 2, HeLa, 24 h, read-out: Anti-HSV Activity, HSV-β-Gal Assay IC50): 3 µg/mL (≈ 11 µM); IC50 (HSV-2 (strain MS); [7]): 6 µg/mL (≈ 21.9 µM) |
| CCCCCCn1c(OC)cc(=O)c2cccc(OC)c21 [Compound 7, 1-Hexyl-2,8-Dimethoxy-4(1H)-Quinolinone] | 5 µg/mL (≈ 17.3 µM) |  | 21 µg/mL (≈ 72.6 µM) | IC50 (HSV-2 (strain MS); [7]): 8 µg/mL (≈ 27.6 µM) |
| COc1cc(=O)c2cc(C)c(C)cc2n1Cc1ccc(O[Si](C)(C)C(C)(C)C)cc1 [Compound 8, 1-[4-(t-Butyl-Dimethylsilyloxy)] Benzyl-2-Methoxy-6,7-Dimethyl-4-(1H)-Quinolinone] | 2 µg/mL (≈ 4.72 µM) |  | 25 µg/mL (≈ 59 µM) |  |
| CCOC(=O)c1c(OC)n(Cc2ccccc2)c2ccc(C)cc2c1=O [Compound 9, 1-Benzyl-2-Methoxy-3-Carbethoxy-6-Methyl-4-(1H)-Quinolinone] | 3 µg/mL (≈ 8.54 µM) |  | 79 µg/mL (≈ 225 µM) |  |
| COc1cc(=O)c2ccc(OC)c(C)c2o1 [Compound 10, 2,7-Dimethoxy-8-Methyl-1,4-Benzopyrone] | 18 µg/mL (≈ 81.7 µM) | 13 µM | > 100 µg/mL |  |
| COc1cc(=O)c2cccc(C)c2n1C [Compound 15] |  |  |  | SHR MBP (fall in mean blood pressure) ([3]; 25 mpk (P.O.), Table III): 12 mm of Hg |
| CC(C)(CO)[C@@H](O)C(=O)NCCCO [dexpanthenol] |  |  |  | enhancement of antiviral activity on addition to lidocaine or lidocaine hydrochloride (herpes virus [4]): significantly enhances the antiviral activity |
| CCN(CC)CC(=O)Nc1c(C)cccc1C [lidocaine, 2-(diethylamino)-N-(2,6-dimethylphenyl)acetamide] |  |  |  | antiviral agent in cell culture against HSV-1 (HSV-1): antiviral agent; treatment of HSV oral and genital lesions in humans (HSV): particularly effective; antiviral agent in cell culture against HSV-2 (HSV-2): antiviral agent; treatment of herpes virus infections of mammals (herpes virus [5]): able to treat herpes virus infections of mammals |
| CC(C)(CO)[C@@H](O)C(=O)NCCC(=O)O [pantothenic acid] |  |  |  | enhancement of antiviral activity on addition to lidocaine or lidocaine hydrochloride (herpes virus [4]): significantly enhances the antiviral activity |

The next lines start with results.

| IC50 (HSV-2 (strain MS); [6]) | IC50 [2] | SMILES | CC50 [1] | also measured |
| --- | --- | --- | --- | --- |
| 10 µg/mL (≈ 32.3 µM) |  | COc1cc(=O)c2cc(C)c(C)cc2n1Cc1ccc(O)cc1 [Compound 11] |  |  |
| 4 µg/mL (≈ 12.7 µM) |  | COc1c(Cl)c(=O)c2cc(C)ccc2n1Cc1ccccc1 [Compound 12] | 12 µg/mL (≈ 38.2 µM) |  |
| 4 µg/mL (≈ 10.2 µM) |  | COc1c(I)c(=O)c2ccccc2n1Cc1ccccc1 [Compound 13] | 27 µg/mL (≈ 69 µM) |  |
| > 25 µg/mL |  | Cn1c(OCCO)cc(=O)c2ccccc21 [Compound 14] |  |  |
|  | 0.6 µM | CCCCCCn1c(OC)cc(=O)c2cc(C)ccc21 [Compound 16] |  |  |
|  | 14 µM | CCCCCCn1c(OC)c(C(=O)OCC)c(=O)c2ccccc21 [Compound 17] |  |  |
|  | > 100 µM | COc1cc(=O)c2cc(OCc3ccccc3)ccc2n1Cc1ccccc1 [R H, R1 --CH3, R2 6-OCH2 Ph, R3 --CH2 Ph] |  |  |
|  | > 100 µM | COc1ccc2c(c1)c(=O)cc(OC)n2Cc1ccccc1 [R H, R1 --CH3, R2 6-OCH3, R3 --CH2 Ph] |  |  |
|  | > 100 µM | COc1cc(=O)c2ccc(Cl)cc2n1C [R H, R1 --CH3, R2 7-Cl, R3 --CH3] |  | SHR MBP [3]: -7 mm of Hg |
|  | > 100 µM | COC(=O)Cn1c(OC)cc(=O)c2ccccc21 [R H, R1 --CH3, R2 --, R3 --CH2 CO2 CH3] |  |  |
